Source: patent US12528777B2, “Quinazolinones derivatives for treatment of non-alcoholic fatty liver disease, preparation and use thereof” (Council of Scientific and Industrial Research, priority 2020, dated 2026)
“Also recorded” adds a separate entry of the source.

Key:
COP1 [1] = target: COP1 (Homo sapiens, UniProt Q8NHY2); experiment: Western blot of COP1 level in HepG2 cells; assay type: cell-based; details: 24 hours, dose dependent
Method: HepG2 cells were treated with the compounds 9, 10, 11, 17, 18, 23, 24, 115, 123, 127, 139,107, 171, 179, 73, 187, 211, 215, 219, 223, 232, 238, 241, 244, 258, 299, 308, and 333a, (10 μM for initial screening and 50 nM, 100 nM, 200 nM, 500 nM, 1 μM and 5 μM for dose dependent assays) for 24 hours. After removing media from the cells, the wells were washed with 1×PBS twice to remove any remnant media. Cells were then lysed in lysis buffer containing 50 mM Tris-HCl (pH 7.4), 100 mM NaCl, 1 mM EDTA, 1 mM EGTA, 1% Triton X-100 and protease inhibitor cocktail (Millipore, Billierica, MA, USA). Following centrifugation at 20,000 g for 20 minutes, the protein solution was extracted from the cells. Protein was estimated using Bradford assay. Bradford's reagent (BioRad) was diluted in 1:4 ratio in double distilled water. 2 μl of protein sample was added to 100 μl of the reagent and absorbance was measured at 595 nm. […] of protein was diluted in lysis buffer. 1× loading buffer diluted from 5× stock containing 250 mM Tris-HCl (pH 6.8), 10% SDS, 50% glycerol, 0.1% bromophenol Blue and 10% β-mercaptoethanol was added. The protein samples were then heated at 95° C. for 10 minutes, cooled and centrifuged at 12,000 g for 2 minutes prior to loading.
For western blotting, the proteins were resolved in 10% SDS PAGE (discontinuous buffer system). […]

COP1 [2] = target: T1, COP1 (Mus musculus, UniProt Q9R1A8); experiment: COP1 level in primary mouse hepatocytes (western blot); assay type: cell-based; parameters: endogenous in cells; host or cells: primary mouse hepatocytes (C57bl/6); details: 24 hours
Method: To further strengthen the efficiency of the compounds 9 and 107, primary hepatocytes were isolated from mice and these compounds were treated in a dose dependent manner for 24 hours. Primary hepatocytes and adipose tissue explants were isolated from mice and subjected to compound treatment for 24 hours at the doses of 100 nM, 500 nM and 1 μM. Post cell harvesting, western blot was carried out with the lysate to check the ATGL level. ATGL and COP1 antibodies were used. Actin served the purpose of a loading control.
1. Hepatocytes—2-4 months old chow-fed black male mouse (C57bl/6) was sacrificed using chloroform (SRL) and was cleaned with 70% ethanol. […] Blood was drawn from the heart in order to prevent backflow into liver while perfusion. The butterfly cannula was inserted into the PV and 20 ml of HBSS (Hank's Balanced Salt Solution; 5 mM KCl, 0.4 mM KH2PO4, 4 mM NaHCO3, 140 mM NaCl, 0.3 mM Na2HPO4, 6 mM Glucose, HEPES, 0.5 mM MgCl2·6H2O, 0.4 mM MgSO4·7H2O, 0.5 mM EDTA; not containing 1 mM CaCl2)) was allowed to pass through the liver (Perfusion) at a constant flow rate of 3 ml/min, maintained by Masterflex digital peristaltic pump (Cole-Parmer). The IVC was cut as soon as the passage of the buffer through the liver began, so that blood and perfusate from liver is drained through the IVC. The liver blanched and became pale in color upon this treatment. […]

ATGL = experiment: In vivo study: ATGL level in mouse liver; parameters: species or system C57BL/6 mice; details: 30 mg/kg orally
Method: (§1) 6-8 weeks old healthy female C57BL/6 mice (average weight: 25 grams) were taken for the study. These were then divided into three groups comprising of three mice per group (Control, compound 107 fed for 8 hours and compound 107 fed for 16 hours). Mice were fed with 30 mg/kg of compound 107 orally. The compound was dissolved in 25% DMSO and 75% PBS. The control group was fed only with the solvent in which the compound was dissolved. Post 8 hours and 16 hours of feeding, mice were sacrificed and a portion of the excised liver tissue was homogenized in lysis buffer containing protease inhibitor cocktail. The homogenate was centrifuged at 20,000 g for 30 minutes following which the supernatant containing the protein lysate was collected. The lysate was then diluted accordingly and protein estimation was carried out by Bradford Assay. This was followed by Western Blotting wherein the levels of ATGL and COP1 were checked. Actin was used as the loading control.

COP1 [3] = target: T1, COP1; experiment: In vivo study: COP1 level in mouse liver; parameters: from tissue; host or cells: mouse liver (in vivo dosing); species or system C57BL/6 mice; details: 30 mg/kg orally
Method: as §1

T1 sequence (Q9R1A8 whole entry): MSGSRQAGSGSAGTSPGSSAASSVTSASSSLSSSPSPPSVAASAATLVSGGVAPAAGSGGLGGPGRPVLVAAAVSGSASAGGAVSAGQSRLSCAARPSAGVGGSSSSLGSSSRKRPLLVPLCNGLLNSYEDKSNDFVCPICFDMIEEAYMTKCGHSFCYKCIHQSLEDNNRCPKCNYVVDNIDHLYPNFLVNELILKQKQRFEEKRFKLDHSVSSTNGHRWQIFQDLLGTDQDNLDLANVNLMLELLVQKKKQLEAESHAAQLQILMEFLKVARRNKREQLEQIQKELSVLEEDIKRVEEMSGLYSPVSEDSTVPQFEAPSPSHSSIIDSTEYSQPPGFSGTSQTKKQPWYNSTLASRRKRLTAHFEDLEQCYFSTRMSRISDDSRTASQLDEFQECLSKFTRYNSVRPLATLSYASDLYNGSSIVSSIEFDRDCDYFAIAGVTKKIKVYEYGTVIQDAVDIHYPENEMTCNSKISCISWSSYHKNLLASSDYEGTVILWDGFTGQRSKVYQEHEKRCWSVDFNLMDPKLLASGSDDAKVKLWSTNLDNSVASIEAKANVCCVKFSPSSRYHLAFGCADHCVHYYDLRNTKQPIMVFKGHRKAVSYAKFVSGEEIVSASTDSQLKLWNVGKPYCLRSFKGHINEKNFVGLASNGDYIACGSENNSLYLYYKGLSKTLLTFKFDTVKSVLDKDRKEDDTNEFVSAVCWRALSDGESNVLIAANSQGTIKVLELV
Chain of COP1 (Homo sapiens, UniProt Q8NHY2) (Q8NHY2 whole entry): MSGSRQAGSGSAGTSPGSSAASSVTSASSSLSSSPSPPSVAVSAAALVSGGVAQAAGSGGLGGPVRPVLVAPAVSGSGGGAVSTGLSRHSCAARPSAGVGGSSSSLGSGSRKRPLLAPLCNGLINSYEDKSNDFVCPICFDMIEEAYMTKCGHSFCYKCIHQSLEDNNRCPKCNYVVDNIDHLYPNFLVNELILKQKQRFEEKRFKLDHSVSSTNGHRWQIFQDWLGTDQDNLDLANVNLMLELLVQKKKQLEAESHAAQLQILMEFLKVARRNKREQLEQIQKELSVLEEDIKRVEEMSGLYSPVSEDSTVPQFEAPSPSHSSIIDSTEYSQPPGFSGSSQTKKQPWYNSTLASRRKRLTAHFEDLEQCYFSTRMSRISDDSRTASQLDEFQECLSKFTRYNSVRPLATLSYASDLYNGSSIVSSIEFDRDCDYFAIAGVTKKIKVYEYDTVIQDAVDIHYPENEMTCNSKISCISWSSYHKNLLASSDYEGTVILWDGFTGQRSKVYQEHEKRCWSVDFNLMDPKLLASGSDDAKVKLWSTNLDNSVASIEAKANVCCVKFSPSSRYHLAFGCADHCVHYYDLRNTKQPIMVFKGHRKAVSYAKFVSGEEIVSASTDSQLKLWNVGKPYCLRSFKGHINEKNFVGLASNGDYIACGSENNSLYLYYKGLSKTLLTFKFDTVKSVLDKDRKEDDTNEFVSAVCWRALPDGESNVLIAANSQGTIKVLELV

COCCn1c(CN2CCCCC2)nc2ccc(NC(=O)Nc3cccc(C(C)=O)c3)cc2c1=O [Compound 238, 1-(3-acetylphenyl)-3-(3-(2-methoxyethyl)-4-oxo-2-(piperidin-1-ylmethyl)-3,4-dihydroquinazolin-6-yl)urea]
COP1 level in HepG2 cells (COP1 [1]): most potent in increasing ATGL and COP1 levels; also recorded: increase in ATGL and COP1 levels | COP1 level in primary mouse hepatocytes (COP1 [2]): increase ATGL and COP1 levels dose dependently; also recorded: increased only with 5 μM concentration

COCCn1c(C)nc2ccc(NC(=O)Nc3cccc(C(C)=O)c3)cc2c1=O [Compound 107, 1-(3-acetylphenyl)-3-(3-(2-methoxyethyl)-2-methyl-4-oxo-3,4-dihydroquinazolin-6-yl)urea]
ATGL level in liver, 8 hours after feeding (ATGL; 8 hours): modestly increase ATGL level; also recorded: no significant impact | ATGL level in liver, 16 hours after feeding (ATGL; 16 hours): modestly increase ATGL level; also recorded: effective in increasing ATGL and COP1 levels | COP1 level in liver, 8 hours after feeding (COP1 [3]): no such effect on COP1; also recorded: no significant impact
